Tests used:
3T3-L1 adipocytes = assay: 3T3-L1 differentiation and Oil Red O staining; assay type: cell-based; settings: 0.25 μM
Experimental: 3T3-L1 preadipocytes were cultured on poly-lysine-coated coverslips with DMEM and 10% FBS at 5% CO2 in 24-well plates. At 2 days post-confluence, cells were incubated with fresh media supplemented with 3-isobutyl-1-methylxanthine (0.5 mM), dexamethasone (1 μM), insulin (1.7 μM), and indicated compounds (0.25 μM). After 48 hr, cells were changed to fresh media and treated with DMSO or indicated compounds for 5 days. Cells without any treatment for the entire 7 days were used as control. The cells were then fixed with 10% formalin. Fixed cells were washed with 60% isopropanol and stained with filtered 60% Oil Red O in deionized water. After staining, cells were washed with water and photographed.

PPARγ = biological target: T1, PPARγ (Homo sapiens, UniProt P37231); assay: Mammalian two-hybrid assay (VP-PPARγ / GAL4-coactivator) in SW480 cells; assay type: cell-based
T1 construct: containing the DEF region of the PPARγ (amino acids 183-505) fused to the pVP16 expression vector; expressed in transfected cells; host or cells: SW480 colon cancer cells; plasmid provided by Dr. Shigeaki Kato (University of Tokyo)
T1 sequence (P37231 183-505): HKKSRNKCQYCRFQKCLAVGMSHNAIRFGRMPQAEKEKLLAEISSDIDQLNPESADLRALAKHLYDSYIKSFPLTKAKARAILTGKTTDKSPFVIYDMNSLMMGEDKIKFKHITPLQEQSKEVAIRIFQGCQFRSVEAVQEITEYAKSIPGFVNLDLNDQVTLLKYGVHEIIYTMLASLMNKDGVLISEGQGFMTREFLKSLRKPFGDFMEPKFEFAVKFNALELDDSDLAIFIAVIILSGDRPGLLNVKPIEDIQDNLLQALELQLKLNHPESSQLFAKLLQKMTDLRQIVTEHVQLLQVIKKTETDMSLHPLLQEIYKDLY
Experimental: The GAL4 reporter construct containing 5×GAL4 response elements (p GAL4) was provided by Dr. Marty Mayo (University of […], Chapel Hill, N.C.). The GAL4-coactivator fusion plasmids pM-SRC1, pMSRC2, pMSRC3, pM-DRIP205, pM-CARM-1 and PPARγ-VP16 fusion plasmid (Vp-PPARγ) containing the DEF region of the PPARγ (amino acids 183-505) fused to the pVP16 expression vector were provided by Dr. Shigeaki Kato (University of Tokyo, Tokyo, Japan). SW480 colon cancer cells were plated in 12-well tissue culture plates at 1×10^5 cells per well in DMEM/Ham's F-12 medium supplemented with 2.5% charcoal stripped FBS.
After allowing them to adhere overnight, transient transfections were carried out with GAL4-Luc (0.4 μg), β-GAL (0.04 μg), VP-PPARγ (0.04 μg), pM-SRC1 (0.04 μg), pM-PGC-1 (0.04 μg), pM-SMRT (0.04 μg), pM-TRAP220 (0.04 μg), pM-DRIP205 (0.04 μg), and pMCARM1 (0.04 μg) using LipofectAMINE2000 (Invitrogen) following the manufacturer's guidelines. After 6 hr of transfection, cells were treated in triplicate either with vehicle (DMSO) or the indicated compound suspended in complete medium for 20-24 hr. One hundred μL per well of 1× Reporter Lysis Buffer (Promega) was used to lyse the cells and 30 μl of this lysate was used to perform the luciferase and β-GAL assays using Lumicount (Perkin-Elmer Life and Analytical Sciences, Boston, Mass.). The luciferase activities obtained were normalized to the β-gal activity.

HT-29 cells = assay: Caveolin-1 expression (Western blot) in HT-29 cells; assay type: cell-based, human; settings: for caveolin-1 induction: HT-29, 72 hr; for effect of T007 on induced caveolin-1 response: HT-29, cotreatment with T007
Experimental: SW480, HT-29, HCT-15 and Panc-28 (3×10^5) colon cancer cells were seeded in 6-well tissue culture plates in DMEM/Ham's F-12 medium containing 2.5% charcoal-stripped FBS. Protein is extracted from the cells treated either with vehicle or indicated compounds suspended for 24 hr except for caveolin-1 protein which was done for 72 hr. Samples were extracted in high salt buffer [50 mmol/L HEPES, 500 mmol/L NaCl, 1.5 mmol/L MgCl2, 1 mmol/L EGTA, 10% glycerol, and 1% Triton X-100 (pH 7.5), and 5 μL/mL protease inhibitor cocktail (Sigma-Aldrich)]. Samples were incubated at 100° C. for 2 min, separated on either 10% or 12% SDS-PAGE gels and then transferred to polyvinylidene difluoride membrane (PVDF; Bio-Rad, Hercules, Calif.). The PVDF membrane was blocked in 5% TBST-Blotto (10 mM Tris HCl, 150 mM NaCl, pH 8.0, 0.05% Triton X-100, and 5% nonfat dry milk) for about 30 min and was then incubated in fresh 5% TBST-Blotto with 1:1000 for caveolin-1 (Santa Cruz Biotechnology, Santa Cruz, Calif.), 1:1000 for p21 (BD Pharmingen, Frank lakes, NJ) and 1:10000 for β-actin (Sigma) primary antibody overnight with gentle shaking at 4° C. After washing with TBST for 10 min, the membrane was incubated with respective secondary antibody (1:5000) (Santa cruz, Calif.) in 5% TBST-Blotto for 3 hr. The membrane is then washed with TBST for 10 min, incubated with chemiluminiscence reagent from Perkin Elmer for one min and then exposed to Kodak X-OMAT AR autoradiography film (Eastman Kodak, Rochester, N.Y.).

SW480 cells = assay: KLF4 mRNA (RT-PCR) in SW480 cells; assay type: cell-based, human
Experimental: SW480 and HT29 colon cancer cells were treated either with vehicle (DMSO) or indicated compounds and after 24 hr total RNA was extracted using RNeasy Mini kit (Qiagen, Inc., Valencia, Calif.). RNA concentration was measured by UV 260:280 nm absorption ratio and 2 μg RNA was used to synthesize cDNA using Reverse Transcription System (Promega). PCR conditions were as follows: initial denaturation at 94° C. (1 min) followed by 28 cycles of denaturation for 30 s at 94° C., annealing for 60 s at 55° C. and extension at 72° C. for 60 s and a final extension step at 72° C. for 5 min. The mRNA levels were normalized using GAPDH as an internal housekeeping gene. Primers obtained from IDT and used for amplification are as follows: KLF4 (sense 5′-CTATGGCAGGGAGTCCGCTCC-3′ (SEQ ID NO: 1); antisense 5′-ATGACCGACGGGCTGCCGTAC-3′ (SEQ ID NO: 2)) and GAPDH (sense 5′-ACGGATTTGGTCGTATTGGGCG-3′ (SEQ ID NO: 3); antisense 5′-CTCCTGGAAGATGGTGATGG-3′ (SEQ ID NO: 4). PCR products were electrophoresed on 1% agarose gels containing ethidium bromide and visualized under UV transillumination.

Row | SMILES | Oil Red O staining (fat droplets) (3T3-L1 adipocytes) | luciferase activity, VP-PPARγ with GAL4 PGC-1 and GAL4 SRC-1 (PPARγ) | caveolin-1 induction (HT-29 cells) | effect of T007 on induced caveolin-1 response (HT-29 cells) | KLF4 expression (SW480 cells) | activation of GAL4-CARM1 (PPARγ)
1 | CC(C)C1CCC2(C(=O)O)CCC3(C)C(CCC4C5(C)C=C(C#N)C(=O)C(C)(C)C5CCC43C)C12 (centres unmarked) [CN-BA] | induce Oil Red O staining | significantly induced luciferase activity | induce caveolin-1 | inhibition of the induced caveolin-1 response | did not induce KLF4 expression | –
2 | COC(=O)C12CCC(C(C)C)C1C1CCC3C4(C)C=C(C#N)C(=O)C(C)(C)C4CCC3(C)C1(C)CC2 (centres unmarked) [CN-BA-Me, Methyl 2-cyano-lup-1-en-3-oxo-20-oate] | induce Oil Red O staining | significantly induced luciferase activity | induce caveolin-1 | inhibition of the induced caveolin-1 response | did not induce KLF4 expression | activated

— patent US20090203661A1, “Betulinic acid, derivatives and analogs thereof and uses therefor” (priority 2006, published 2009)
